According to patent US7371864B2, “Crystalline forms of a factor Xa inhibitor” (Bristol-Myers Squibb Company, priority 2004, dated 2008):

Key:
[1] = Moisture sorption isotherms (VTI SGA-100 Symmetric Vapor Analyzer); type: physicochemical; conditions: 25° C., 4-95% RH
Procedure: Moisture sorption isotherms for N-1 were collected in a VTI SGA-100 Symmetric Vapor Analyzer using about 10 mg sample. The sample was dried at 60° C. until the loss rate of 0.0005 wt %/min was obtained for 10 minutes. The sample was tested at 25° C. and 4, 5, 15, 25, 35, 45, 50, 65, 75, 85, and 95% RH. Equilibration at each RH was reached when the rate of 0.0003 wt %/min for 35 minutes or a maximum of 600 minutes was achieved.

[2] = Relative thermodynamic stability of crystalline forms; type: physicochemical

hygroscopicity from moisture sorption isotherms [1]: essentially non-hygroscopic
stability relative to Form N-3 (monotropic relationship) ([2]; all temperatures, inferred from Form N-3 melting ˜40° C. lower than Form N-1): more stable at all temperatures
thermodynamic stability relative to other crystalline forms ([2]; room temperature): thermodynamically more stable form
SMILES: COc1ccc(-n2nc(C(C)(C)O)c3c2C(=O)N(c2ccc(-n4ccccc4=O)cc2)CC3)cc1 [Form N-1, 3-(1-hydroxy-1-methyl-ethyl)-1-(4-methoxy-phenyl)-6-[4-(2-oxo-2H-pyridin-1-yl)-phenyl]-1,4,5,6-tetrahydro-pyrazolo[3,4-c]pyridin-7-one]
